Reference: patent US11179367B2, “Pharmaceutical compositions for treating cystic fibrosis” (Vertex Pharmaceuticals Incorporated, priority 2018, dated 2021)

Columns and labels:
[1] = biological target: T1, F508del CFTR in NIH3T3 cells (Homo sapiens, UniProt P13569, DEL508-508); experiment: Membrane potential optical assay (correction assay) for F508del-CFTR modulators; assay type: cell-based; conditions: NIH3T3 cells expressing F508del
T1 construct: expressed in transfected cells
Excerpt: Membrane Potential Optical Methods for Assaying Properties of F508del-CFTR Modulators
An optical assay was employed to measure changes in membrane potential to determine the CFTR modulator properties of compounds. The assay utilized fluorescent voltage sensing dyes to measure changes in membrane potential using a fluorescent plate reader (e.g., FLIPR III, Molecular Devices, Inc.) as a readout for increase in functional F508del in NIH 3T3 cells. The driving force for the response was the creation of a chloride ion gradient in conjunction with channel activation and concurrent with compound treatment by a single liquid addition step after the cells had previously been loaded with a voltage sensing dye.
NIH3T3 mouse fibroblasts stably expressing F508del were used for optical measurements of membrane potential. The cells were maintained at 37° C. in 5% CO2 and 90% humidity in Dulbecco's modified Eagle's medium supplemented with 2 mM glutamine, 10% fetal bovine serum, 1×NEAA, β-ME, 1×pen/strep, and 25 mM HEPES in 175 cm^2 culture flasks. […] The cells were then activated and treated with Compound I. After 18-24 hours, fluorescence from the voltage sensing dye in the cells was measured to assess changes in the membrane potential as a read out for increase in functional F508del CFTR in the NIH3T3 cells.

[2] = Rat pharmacokinetics, single IV and oral dose; assay type: in vivo; conditions: male Sprague Dawley rats
Experimental: Compound 1 was also administered to male Sprague Dawley rats at single nominal oral dose (PO) of 3 mg/kg as a solution in 5% NMP, 30% PEG400, 10% TPGS, 5% PVP-K30 at 5 mL/kg dose volume.
The study design, sample tracking, data run design and individual plasma sample concentrations were stored using Watson LIMS software, Version 7.4.2 (Thermo Scientific Inc, Waltham, Mass.). Plasma concentration-time profiles of Compound 1 in Sprague Dawley rats at scheduled (nominal) sampling times were analyzed by noncompartmental pharmacokinetic methods using PK function within Watson LIMS software, Version 7.4.2 (Thermo Scientific Inc, Waltham, Mass.). Key pharmacokinetic parameters such as “area under the curve” (AUC), from the time of drug administration, time zero, extrapolated to infinity, clearance (CL), and Percent of oral bioavailability (% F) were determined. The AUC values were calculated using the linear trapezoidal rule.
In Table 21 below, Compound I is shown to have advantageous rat oral exposure (AUC) and oral bioavailability.

CFTR = CFTR (Homo sapiens, UniProt P13569); conditions: disclosed in PCT Application No. PCT/US2017/065425; read-out: EC50 as CFTR modulator; cited from earlier work
[3] = biological target: T2, F508del-CFTR in human bronchial epithelial (HBE) cells (Homo sapiens, UniProt P13569, DEL508-508); experiment: Ussing chamber assay, chloride current in airway epithelial (HBE) cells expressing F508del; assay type: cell-based
T2 construct: endogenous in cells; host or cells: primary CF human bronchial epithelial (HBE) cells
T2 sequence (P13569 with tags, fused parts or gaps DEL508-508): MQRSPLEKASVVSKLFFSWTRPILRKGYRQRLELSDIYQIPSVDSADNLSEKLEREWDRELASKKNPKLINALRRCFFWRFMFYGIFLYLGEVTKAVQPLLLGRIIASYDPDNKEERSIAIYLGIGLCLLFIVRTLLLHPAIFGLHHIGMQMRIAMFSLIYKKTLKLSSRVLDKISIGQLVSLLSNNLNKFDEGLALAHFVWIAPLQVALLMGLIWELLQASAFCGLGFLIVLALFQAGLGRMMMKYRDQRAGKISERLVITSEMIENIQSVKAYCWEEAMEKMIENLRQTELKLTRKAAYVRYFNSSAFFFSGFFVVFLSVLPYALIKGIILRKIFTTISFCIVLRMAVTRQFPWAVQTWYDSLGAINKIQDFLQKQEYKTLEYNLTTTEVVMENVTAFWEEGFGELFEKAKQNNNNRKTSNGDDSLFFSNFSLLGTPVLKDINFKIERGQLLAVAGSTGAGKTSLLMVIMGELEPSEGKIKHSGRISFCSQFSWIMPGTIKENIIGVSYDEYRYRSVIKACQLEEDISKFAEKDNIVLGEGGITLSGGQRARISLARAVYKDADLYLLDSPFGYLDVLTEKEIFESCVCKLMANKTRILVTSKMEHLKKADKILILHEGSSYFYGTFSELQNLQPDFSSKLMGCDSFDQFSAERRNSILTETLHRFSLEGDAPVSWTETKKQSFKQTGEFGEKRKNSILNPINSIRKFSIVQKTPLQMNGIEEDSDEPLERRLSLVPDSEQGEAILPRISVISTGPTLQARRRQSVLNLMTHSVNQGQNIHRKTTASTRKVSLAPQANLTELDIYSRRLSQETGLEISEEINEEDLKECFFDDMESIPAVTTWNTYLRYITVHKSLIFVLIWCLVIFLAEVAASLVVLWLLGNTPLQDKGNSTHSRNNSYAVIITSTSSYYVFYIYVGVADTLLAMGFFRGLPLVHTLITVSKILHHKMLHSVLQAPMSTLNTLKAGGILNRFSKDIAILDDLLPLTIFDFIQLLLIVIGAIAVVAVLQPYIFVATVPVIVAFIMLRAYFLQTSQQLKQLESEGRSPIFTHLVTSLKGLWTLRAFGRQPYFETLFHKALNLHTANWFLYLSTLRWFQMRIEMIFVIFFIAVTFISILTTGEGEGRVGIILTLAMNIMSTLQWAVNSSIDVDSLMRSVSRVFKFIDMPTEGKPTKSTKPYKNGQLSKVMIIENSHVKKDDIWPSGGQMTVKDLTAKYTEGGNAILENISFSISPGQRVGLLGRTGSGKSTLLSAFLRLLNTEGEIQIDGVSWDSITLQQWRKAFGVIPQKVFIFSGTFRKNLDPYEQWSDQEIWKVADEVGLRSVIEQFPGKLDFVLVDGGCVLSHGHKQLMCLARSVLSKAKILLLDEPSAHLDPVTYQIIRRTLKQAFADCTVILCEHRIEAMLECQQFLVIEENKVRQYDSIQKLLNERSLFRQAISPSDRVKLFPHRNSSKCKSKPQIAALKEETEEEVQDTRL
Experimental: Ussing chamber experiments were performed on polarized airway epithelial cells expressing F508del to further characterize the F508del modulators identified in the optical assay above. Non-CF and CF airway epithelia were isolated from bronchial tissue, cultured using methods well known in the art, and plated onto Costar® Snapwell™ filters that were precoated with NIH3T3-conditioned media. After four days the apical media was removed and the cells were grown at an air liquid interface for >14 days prior to use. […] CF-HBE cells were isolated from patients homozygous for F508del (F508del/F508del-HBE) or heterozygous for F508del with a different disease causing mutation on the other allele.
HBE cells grown on Costar® Snapwell™ cell culture inserts were mounted in an Ussing chamber (Physiologic Instruments, Inc., San Diego, Calif.), and the transepithelial resistance and short-circuit current in the presence of a basolateral to apical Cl^− gradient (ISC) were measured using a voltage-clamp system (Department of Bioengineering, University of Iowa, IA). Briefly, HBE cells were examined under voltage-clamp recording conditions (Vhold=0 mV) at 37° C. […]
A basolateral to apical membrane Cl^− concentration gradient was set up as follows. […] Chloride current was measured to assess the increase in functional CFTR in the cell membrane.

F508del-CFTR protein = F508del-CFTR protein (Homo sapiens, UniProt P13569, DEL508-508); experiment: CFTR processing and trafficking to the cell surface (Example 15); assay type: cell-based
F508del-CFTR protein, sequence (P13569 with tags, fused parts or gaps DEL508-508): as above

[4] = Bioavailability of crystalline Form A of Compound I; assay type: in vivo
[5] = Solid form assessment of Compound I (thermodynamic stability); assay type: physicochemical; conditions: among solid forms of Compound I
Excerpt: In some embodiments, Compound I is Form A. In some embodiments, crystalline Form A is characterized by an X-ray powder diffractogram having a signal at least one two-theta value chosen from 6.6±0.2, 7.6±0.2, 9.6±0.2, 12.4±0.2, 13.1±0.2, 15.2±0.2, 16.4±0.2, 18.2±0.2, and 18.6±0.2. In some embodiments, crystalline Form A is characterized by an X-ray powder diffractogram having a signal at at least three two-theta values chosen from 6.6±0.2, 7.6±0.2, 9.6±0.2, 12.4±0.2, 13.1±0.2, 15.2±0.2, 16.4±0.2, 18.2±0.2, and 18.6±0.2. In some embodiments, crystalline Form A is characterized by an X-ray powder diffractograph having a signal at at least three two-theta values chosen from 6.6±0.2, 9.6±0.2, 13.1±0.2, 15.2±0.2, 18.2±0.2, and 18.6±0.2. In some embodiments, crystalline Form A is characterized by an X-ray powder diffractograph having a signal at three two-theta values of 6.6±0.2, 13.1±0.2, 18.2±0.2. In some embodiments, crystalline Form A is characterized by an X-ray powder diffractograph having a signal at six two-theta values of 6.6±0.2, 9.6±0.2, 13.1±0.2, 15.2±0.2, 18.2±0.2, and 18.6±0.2. In some embodiments, Crystalline Form A is characterized by an X-ray powder diffractogram substantially similar to that in FIG. 4A. In some embodiments, Crystalline Form A is characterized by an X-ray powder diffractogram substantially similar to that in FIG. 4B.

T1 sequence (P13569 with tags, fused parts or gaps DEL508-508): as above

Compound | EC50 ([1]; 18-24 hours treatment) [nM] | Emax ([1]; relative to Compound II, read-out: % Efficacy relative to Compound II) [%] | rat oral exposure (AUC) ([2]; PO 3 mg/kg) | oral bioavailability ([2]; PO 3 mg/kg vs IV 3.0 mg/kg) | Rat PO AUC/dose ([2]; single nominal oral dose 3 mg/kg, dose-normalised) [µg·h/mL/mg/kg] | bioavailability ([2]; rat, plasma, oral bioavailability, PO 3 mg/kg vs IV 3.0 mg/kg, read-out: Rat % F) [%] | clearance ([2]; rat, plasma, single nominal IV dose 3.0 mg/kg, read-out: Rat iv CL) [mL/min/kg] | AUC ([2]; rat, plasma, single nominal oral dose 3 mg/kg, AUC extrapolated to infinity) [ng·h/mL] | EC50 (CFTR) [nM] | EC50 [3] [nM] | HBE Max Eff (%) ([3]; % Efficacy) | CFTR corrector activity (processing and trafficking of F508del-CFTR, enhanced chloride transport) (F508del-CFTR protein) | bioavailability [4] | thermodynamic stability of solid form [5]
Cc1nn(C)cc1S(=O)(=O)NC(=O)c1ccc(-n2ccc(OCC(C)(C)C(F)(F)F)n2)nc1N1C[C@@H](C)CC1(C)C [Compound I, N-(1,3-dimethylpyrazol-4-yl)sulfonyl-6-[3-(3,3,3-trifluoro-2,2-dimethyl-propoxy)pyrazol-1-yl]-2-[(4 S)-2,2,4-trimethylpyrrolidin-1-yl]pyridine-3-carboxamide] | < 3000 | ≥ 100 | advantageous | advantageous | 9.4 ± 0.7 | 84 | 1.6 ± 0.4 | 23500 ± 1700 | 70 | < 2000 | +++ (“+++” means >100%) | potent, efficacious, and selective |  | 
Cc1nn(C)cc1S(=O)(=O)NC(=O)c1ccc(-n2ccc(OCC(C)(C)C(F)(F)F)n2)nc1N1C[C@@H](C)CC1(C)C [Crystalline Form A, N-(1,3-dimethylpyrazol-4-yl)sulfonyl-6-[3-(3,3,3-trifluoro-2,2-dimethyl-propoxy)pyrazol-1-yl]-2-[(4 S)-2,2,4-trimethylpyrrolidin-1-yl]pyridine-3-carboxamide] |  |  |  |  |  |  |  |  |  |  |  |  | good | most thermodynamically stable form
